Assay results: article PMC5177629, “Selective Estrogen Receptor Modulators: Cannabinoid Receptor Inverse Agonists with Differential CB1 and CB2 Selectivity” (Frontiers in Pharmacology, 2016)
Where two headings read alike, the source gives them in different places. Marks after values point to notes of the source that are not given here.

Tests used:
[1] = molecular target: T1, human cannabinoid type-2 receptors (hCB2) (Homo sapiens, UniProt P34972); experiment: Competition receptor binding with [3H]CP-55,940, CHO-hCB2 membranes; conditions: for displacement of [3H]CP-55,940 from hCB2Rs: single 1 μM concentration, 0.2 nM [3H]CP-55,940, CHO-hCB2
T1 construct: expressed in transfected cells; host or cells: CHO cells (CHO-hCB2), membranes or intact cells
T1 sequence (P34972 whole entry): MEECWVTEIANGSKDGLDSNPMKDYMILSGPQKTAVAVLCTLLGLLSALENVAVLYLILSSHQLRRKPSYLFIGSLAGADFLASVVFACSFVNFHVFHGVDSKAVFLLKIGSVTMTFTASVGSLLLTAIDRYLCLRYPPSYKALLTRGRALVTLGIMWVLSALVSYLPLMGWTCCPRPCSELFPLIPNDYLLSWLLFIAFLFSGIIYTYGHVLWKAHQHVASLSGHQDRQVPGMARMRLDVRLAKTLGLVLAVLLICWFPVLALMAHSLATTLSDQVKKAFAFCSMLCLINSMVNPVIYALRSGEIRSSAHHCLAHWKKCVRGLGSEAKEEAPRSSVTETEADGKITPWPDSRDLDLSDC
Protocol: (§1) Membrane homogenates were prepared for competition receptor binding and [^35S]GTPγS binding studies by using pellets previously frozen of CHO-hCB1 or CHO-hCB2 cells as described in ([Franks et al., 2014]). In short, pellets were thawed on ice, combined in a 40 ml glass Dounce homogenizer and homogenized in 20 ml of cold buffer (50 mM HEPES at pH 7.4, 3 mM MgCl2, and 1 mM EGTA) using 10 strokes. Homogenates were then centrifuged at 40,000 × g for 10 min at 4°C. After discarding the supernatant, pellets were homogenized and centrifuged twice more. Final pellets were re-suspended in ice-cold 50 mM HEPES, pH 7.4, aliquoted and stored at -80°C for future use. Protein concentration was determined the same day, prior to freezing, using BCA^TM Protein Assay (Thermo Fisher Scientific, Waltham, MA, USA).
The final volume of each sample was 1 ml, containing 50 mM Tris-HCl buffer (pH 7.4), 0.05% bovine serum albumin, 5 mM MgCl2, increasing concentrations of non-radioactive competing SERM ligands, and either 100 μg of CHO-hCB1 or 50 μg of CHO-hCB2 membrane homogenates. Non-specific binding was defined by radioactivity remaining in the presence of 1 μM of the non-radioactive CB1/CB2 agonist WIN-55,212-2. Each sample condition was performed in triplicate and allowed to reach equilibrium at room temperature for 90 min. Reactions were terminated by rapid vacuum filtration through Whatman GF/B glass fiber filters (Brandel, Inc.), followed by four 4 ml washes of ice-cold filtration buffer (50 mM Tris at pH 7.4 and 0.05% BSA). Filter punches of individual samples were placed in scintillation vials containing 4 mls of ScintiverseTM BD cocktail scintillation fluid (Fisher Scientific, Pittsburg, PA, USA). Final counts were determined using liquid scintillation spectrophotometry (Tri Carb 2100 TR Liquid Scintillation Analyzer, Packard Instrument Company, Meriden, CT, USA) after overnight incubation.
(§2) Statistical analyses were conducted by utilizing GraphPad Prism v6.0g (GraphPad Software, Inc.; San Diego, CA, USA). IC50 values from competition receptor binding curves were derived by non-linear regression. Experimental IC50 values were converted to Ki values (a measure of receptor affinity) by using the Cheng–Prusoff equation ([Cheng and Prusoff, 1973]). Non-linear regression analysis of concentration-effect curves was also used to determine potency (ED50 or IC50) and efficacy (Emax or Imax) for modulation of GTPγS and adenylyl cyclase activity, respectively. All IC50, EC50, Ki, and Kb values were converted to pEC50, pIC50, pKi, and pKb values in order to permit use of parametric statistical analyses. For all experiments comparing three or more values, an one-way ANOVA was employed, followed by Dunnett’s or Tukey’s post hoc tests. For comparisons of two values, an unpaired t-test was utilized. To determine significant radioligand displacement or modulation of G-protein activity compared to basal levels, a one-sample t-test was employed.
For initial comparison of potential SERM binding to CBRs, 14 commercially available compounds from 5 structurally distinct classes (Figure 1) were subjected to a radioligand binding screen (Figure 2).

[2] = molecular target: T2, human cannabinoid type-1 receptors (hCB1) (Homo sapiens, UniProt P21554); experiment: [35S]GTPγS binding, CHO-hCB1 membranes; type: biochemical; conditions: for IMAX, GTPγS Binding (% Basal) CHO-hCB1: maximal reduction of basal G-protein activity
T2 construct: host or cells: CHO cells (CHO-hCB1), membranes or intact cells
T2 sequence (P21554 whole entry): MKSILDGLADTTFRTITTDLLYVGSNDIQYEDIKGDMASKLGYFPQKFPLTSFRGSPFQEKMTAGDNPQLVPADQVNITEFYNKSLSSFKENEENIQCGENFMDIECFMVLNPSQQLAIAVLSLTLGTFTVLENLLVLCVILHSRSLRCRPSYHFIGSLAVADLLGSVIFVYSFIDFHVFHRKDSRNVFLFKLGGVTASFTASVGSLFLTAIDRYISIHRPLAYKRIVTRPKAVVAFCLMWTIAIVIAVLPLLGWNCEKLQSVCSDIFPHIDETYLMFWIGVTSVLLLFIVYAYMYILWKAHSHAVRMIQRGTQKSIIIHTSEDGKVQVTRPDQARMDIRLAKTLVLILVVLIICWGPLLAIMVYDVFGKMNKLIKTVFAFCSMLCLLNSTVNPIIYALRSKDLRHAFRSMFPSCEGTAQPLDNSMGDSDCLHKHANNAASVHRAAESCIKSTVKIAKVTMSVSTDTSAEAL
Protocol: as §1, with “In” for “Membrane homogenates were prepared for competition receptor binding and [^35S]GTPγS binding studies by using pellets previously frozen of CHO-hCB1 or CHO-hCB2 cells as described in ([Franks et al., 2014]). In”
Non-specific binding was defined by radioactivity remaining in the presence of 10 μM of non-radioactive GTPγS. All reactions were incubated for 30 min at 30°C, terminated by filtration through Whatman GF/B glass fiber filters (Brandel, Inc.) and followed by four 4 ml washes of ice cold filtration buffer (50 mM HEPES, pH 7.4) containing 0.1% bovine serum albumin. Filter punches of individual samples were placed in scintillation vials containing 4 mls of ScintiverseTM BD cocktail scintillation fluid (Fisher Scientific, Pittsburg, PA, USA). Final counts were determined using liquid scintillation spectrophotometry (Tri Carb 2100 TR Liquid Scintillation Analyzer, Packard Instrument Company, Meriden, CT, USA) after overnight incubation.
as §2, with “Experimental IC50 values were converted to Ki values (a measure of receptor affinity) by using the Cheng–Prusoff equation ([Cheng and Prusoff, 1973]).” left out
CBRs are coupled to Gi/Go type G-proteins. Therefore, binding of agonists to CBRs leads to G-protein activation, antagonists produce no effect, and inverse agonists reduce basal G-protein activity produced by constitutively active receptors. SERMs were screened by examining the ability of a single receptor saturating concentration (10 μM) to modulate G-protein activity in membranes prepared from CHO-hCB1 and CHO-hCB2 cells. G-protein activation was quantified using employing [^35S]GTPγS, a non-hydrolyzable analog of GTP, that irreversibly binds to the G-proteins when activated.

[3] = Ki, [3H]CP-55,940 Binding CHO-hCB2, CHO-hCB2 membranes, Cheng-Prusoff from IC50

Structure (SMILES) | Ki ([1]; pKi, [3H]CP-55,940 Binding CHO-hCB2) | displacement of [3H]CP-55,940 from hCB2Rs [1] | IMAX, GTPγS Binding (% Basal) CHO-hCB1 [2] | IC50 ([2]; reduction of basal G-protein activity, CHO-hCB1 membranes, read-out: IC50, GTPγS Binding CHO-hCB1) | Ki ([1]; CHO-hCB2 membranes, read-out: affinity for hCB2Rs (Ki)) | Ki [1, 3] | IC50 [2] | reduction of basal G-protein activity, hCB1Rs ([2]; CHO-hCB1 membranes, 10 μM) | Ki ([1]; affinity for hCB2Rs (Ki), CHO-hCB2 membranes) | Ki ([1]; pKi, [3H]CP-55,940 Binding CHO-hCB2, CHO-hCB2 membranes, mean ± SEM)
Cc1c(-c2ccc(O)cc2)n(Cc2ccc(OCCN3CCCCCC3)cc2)c2ccc(O)cc12 [BAZ, bazedoxifene] | 0.254 µM | 73% | – | – | – | – | – | – | – | –
COc1ccc2c(c1)CCC(c1ccccc1)=C2c1ccc(OCCN2CCCC2)cc1 [NAF, nafoxidine] | – | – | 31.7 ± 1.5^a % | 0.524 µM | 1 to 4 µM | 1.3 µM | – | – | – | –
OCCOc1ccc(/C(=C(/CCCl)c2ccccc2)c2ccccc2)cc1 [OSP, ospemifene] | – | – | 30.3 ± 2.0^a % | – | – | 3.72 µM | 0.17 µM | ~30% | 1 to 4 µM | –
O=C(c1ccc(OCCN2CCCCC2)cc1)c1c(-c2ccc(O)cc2)sc2cc(O)ccc12 [RAL, raloxifene] | – | 80% | – | – | – | ~0.2 µM | – | – | – | 0.24 µM
